Reference: US20130289083A1, “IDO Inhibitors” (priority 2007, published 2013)
Where two headings read alike, the source gives them in different places.

Columns and labels:
[1] = target: purified human IDO protein (Homo sapiens, UniProt P14902); assay: Enzymatic IDO assay (kynurenine production, absorbance 480 nm); details: enzymatic activity
[2] = target: human IDO (Homo sapiens, UniProt P14902); assay: Cell based IDO/kynurenine assay in IDO-293-T-Rex cells; details: kynurenine production, read-out: hIDO EC50
Protocol: 293-T-REx™ cells (Invitrogen) constitutively express a tet operator binding repressor protein and are maintained in DMEM, 10% FBS, 1× Penicillin+Streptomycin, 2 mM L-glutamine, 5 μg/mL blasticidin at 37° C. with a 5% CO2 in air atmosphere and typically split prior to confluency. Cells were passed by splitting the culture 1/10—by removing media by aspiration, washing 1× with PBS, incubating with 0.25% trypsin/EDTA until the cells detach, disbursing the cells in fresh growth media, and plating at 1/10 dilutions in fresh growth media. For long term cryopreservation, cells are detached from the plate as described above, collected by centrifugation, resuspended in freeze medium (growth medium, 10% DMSO), stored in 1.8 mL cyropreservation vials (˜2−5×10^6 cells per vial), in liquid nitrogen vapor storage tanks.
IDOl-expressing 293-T-Rex™ cell lines were generated by stable transfection of plasmid pcDNA-tetO-IDO expressing human IDO or murine IDO under the control of the doxycycline-inducible CMV-tet promoter. Transfected cells were selected in DBZ medium (DMEM, 10% FBS, 1× Penicillin+Streptomycin, 2 mM L-glutamine, 5 μg/mL blasticidin and 25 μg/ml Zeocin) at 37° C. with a 5% CO2 in air atmosphere. Individual clones were isolated by limiting dilution cloning from these populations.
[…]. The cells incubated in Neutral medium serve as negative control of the assay. The cells incubated in Induction medium and without inhibitor serve as the positive control of the assay. The incubation is carried out for 16 h at 37° C. in a cell culture incubator. 200 μL of medium are transferred to U-bottom polypropylene 96-well plates containing 25 μL of 30% TCA, incubated 30 minutes at 60° C. and centrifuged at 3400 g for 5 minutes. 150 μL of the clear supernatant is transferred to a polystyrene 96-well plate containing 50 μL of 4% (w/v) of p-dimethylaminobenzaldehyde in acetic acid, incubated for 10 min. Kynurenine concentration is determined by measuring the absorbance at 480 nm.
The conditions of the assay were as described in the examples.

[3] = hIDO IC50, recombinant human IDO, values reported in ranges
[4] = 293T cell line stably expressing human IDO, values reported in ranges
[5] = hIDO IC50, Table 15, recombinant human IDO
[6] = hIDO IC50, Table 16, recombinant human IDO

purified human IDO protein, sequence (P14902 whole entry P110S/E119G): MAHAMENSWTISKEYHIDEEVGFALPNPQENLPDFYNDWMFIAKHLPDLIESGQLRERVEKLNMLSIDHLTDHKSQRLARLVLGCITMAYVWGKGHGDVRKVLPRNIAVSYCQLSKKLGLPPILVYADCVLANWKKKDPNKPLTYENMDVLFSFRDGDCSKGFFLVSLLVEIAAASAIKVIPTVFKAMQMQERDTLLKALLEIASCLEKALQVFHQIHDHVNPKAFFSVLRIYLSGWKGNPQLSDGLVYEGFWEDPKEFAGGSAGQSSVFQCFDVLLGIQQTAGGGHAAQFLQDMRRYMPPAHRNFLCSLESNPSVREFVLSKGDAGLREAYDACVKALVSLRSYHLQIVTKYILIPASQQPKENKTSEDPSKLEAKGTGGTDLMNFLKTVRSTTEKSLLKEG
human IDO, sequence (P14902 whole entry): as the sequence (P14902 whole entry P110S/E119G) above, with S110P, G119E counted along it

Row | Structure (SMILES) | IC50 [1, 3] | EC50 [2, 4] | other results
1 | Oc1ccc(Cc2ccccc2)c2cccnc12 [compound 664, 5-benzylquinolin-8-ol] | 100 to 1000 µM | – | –
2 | S=C(NCCc1c[nH]c2ccccc12)SCCc1ccc(Br)cc1 [compound 4, 4-Bromophenethyl 2-(1H-indol-3-yl)ethylcarbamodithioate] | 100 to 1000 µM | 20 to 100 µM | –
3 | NO[C@@H](CCO)c1ccccc1 [compound 1883, (S)-3-(aminooxy)-3-phenylpropan-1-ol] | – | – | IC50 [1, 5]: 100 to 1000 µM
4 | CSC(=S)NC(C)(C)Cc1c[nH]c2ccccc12 [compound 28, Methyl 1-(1H-indol-3-yl)-2-methylpropan-2-ylcarbamodithioate] | 100 to 1000 µM | 20 to 100 µM | –
5 | OCCc1c[nH]c2ccccc12 [compound 606, 2-(1H-indol-3-yl)ethanol] | 100 to 1000 µM | – | –
6 | S=C(NCCc1csc2ccccc12)SCc1ccc2ccccc2c1 [compound 60] | – | 20 to 100 µM | IC50 ([1]; read-out: hIDO IC50, recombinant human IDO, values reported in ranges): 20 to 100 µM
7 | Fc1ccccc1CCSC(=S)NCCc1c[nH]c2ccccc12 [compound 12, 2-fluorophenethyl 2-(1H-indol-3-yl)ethylcarbamodithioate] | 100 to 1000 µM | 100 to 1000 µM | –
8 | Cc1ccc(SC(=S)Nc2ccccc2)cc1 [compound 142, p-tolyl phenylcarbamodithioate] | < 20 µM | 100 to 1000 µM | –
9 | O=C1CSC(=S)N1Cc1c[nH]c2ccccc12 [compound 78, 3-((1H-indol-3-yl)methyl)-2-thioxothiazolidin-4-one] | 100 to 1000 µM | 100 to 1000 µM | –
10 | CSC(=S)NCCCCCCc1c[nH]c2ccccc12 [compound 27, Methyl 6-(1H-indol-3-yl)hexylcarbamodithioate] | 100 to 1000 µM | 100 to 1000 µM | –
11 | CNCCC(ON)c1ccccc1 (stereo not shown) [compound 1904, 3-(aminooxy)-N-methyl-3-phenylpropan-1-amine] | – | – | IC50 [1, 5]: 100 to 1000 µM
12 | CN(C)c1ccc(-c2ccc(Cl)cc2CON)cc1 [compound 1934, 2′-(aminooxymethyl)-4′-chloro-N,N-dimethylbiphenyl-4-amine] | – | – | EC50 ([2]; Table 15, 293T cells expressing human IDO): < 10 µM; IC50 [1, 5]: < 10 µM
13 | S=C1OCCN1Cc1ccccc1 [compound 81, 3-Benzyloxazolidine-2-thione] | 100 to 1000 µM | – | –
14 | Oc1ccccc1C(=S)NCc1ccc2ccccc2c1 [compound 607, 2-hydroxy-N-(naphthalen-2-ylmethyl)benzothioamide] | 20 to 100 µM | 20 to 100 µM | –
15 | S=C(NCCc1c[nH]c2ccccc12)SCc1noc2ccccc12 [compound 52, Benzo[d]isoxazol-3-ylmethyl 2-(1H-indol-3-yl)ethylcarbamodithioate] | 20 to 100 µM | 20 to 100 µM | –
16 | S=C1NC(c2ccccc2)NC(c2ccccc2)S1 (stereo not shown) [compound 152, 4,6-diphenyl-1,3,5-thiadiazinane-2-thione] | 20 to 100 µM | 20 to 100 µM | –
17 | Nc1ccccc1NC(=O)CCc1csc2ccccc12 [compound 739, N-(2-aminophenyl)-3-(benzo[b]thiophen-3-yl)propanamide] | 100 to 1000 µM | 100 to 1000 µM | –
18 | NCCC(ON)c1ccccc1 (stereo not shown) [compound 1877, 3-(aminooxy)-3-phenylpropan-1-amine] | – | – | IC50 [1, 5]: 10 to 100 µM
19 | COc1cc2oc(=O)cc(CSC(=S)NCCc3c[nH]c4ccccc34)c2cc1OC [compound 23, (6,7-Dimethoxy-2-oxo-2H-chromen-4-yl)methyl 2-(1H-indol-3-yl)ethyl-carbamodithioate] | 100 to 1000 µM | 20 to 100 µM | –
20 | CC(=O)C1C2CCC(C2)C1(C)C (stereo not shown) [compound 289, 1-(3,3-dimethylbicyclo[2.2.1]heptan-2-yl)ethanone] | 100 to 1000 µM | 1000 to 10000 µM | –
21 | S=C(NCc1c[nH]c2ccccc12)Nc1nccs1 [compound 568, 1-((1H-indol-3-yl)methyl)-3-(thiazol-2-yl)thiourea] | 100 to 1000 µM | – | –
22 | O=C(O)Cc1cccc2sccc12 [compound 307, 2-(benzo[b]thiophen-4-yl)acetic acid] | < 20 µM | 1000 to 10000 µM | –
23 | O=C(Cc1ccc2ccccc2c1)NO [compound 827, N-hydroxy-2-(naphthalen-2-yl)acetamide] | 100 to 1000 µM | 20 to 100 µM | –

Row | Structure (SMILES) | IC50 [1, 3] | EC50 [2, 4] | other results
24 | CC(C)(C)OC(=O)NCC(ON)c1ccccc1 (stereo not shown) [compound 1876, tert-butyl 2-(aminooxy)-2-phenylethylcarbamate] | – | – | IC50 [1, 5]: 100 to 1000 µM
25 | Oc1noc(O)c1-c1ccccc1 [compound 707, 4-phenylisoxazole-3,5-diol] | 100 to 1000 µM | – | –
26 | NOc1ccccc1 [compound 1900, O-phenylhydroxylamine] | – | – | IC50 [1, 6]: 10 to 100 µM
27 | O=C(O)CCn1[nH]c(=O)c2ccccc21 [compound 267, 3-(3-oxo-2,3-dihydro-1H-indazol-1-yl)propanoic acid] | 100 to 1000 µM | – | –
28 | S=C1OCCN1Cc1ccc2ccccc2c1 [compound 786, 3-(Naphthalen-2-ylmethyl)oxazolidine-2-thione] | 100 to 1000 µM | – | –
29 | O=C(Cc1ccccc1)NO [compound 889, N-hydroxy-2-phenylacetamide] | 100 to 1000 µM | – | –
30 | CNC(=O)[C@@H](ON)c1ccccc1 [compound 2033, (S)-2-(aminooxy)-N-methyl-2-phenylacetamide] | – | – | IC50 [1, 5]: < 10 µM
31 | CNC(=O)[C@H](ON)c1ccccc1 [compound 2034, (R)-2-(aminooxy)-N-methyl-2-phenylacetamide] | – | – | IC50 [1, 5]: 100 to 1000 µM
32 | S=C(NCCCc1c[nH]c2ccccc12)c1ccccc1 [compound 673, N-(3-(1H-indol-3-yl)propyl)benzothioamide] | 100 to 1000 µM | – | –
33 | S=C(NCCCc1c[nH]c2ccccc12)Nc1nccs1 [compound 565, 1-(3-(1H-indol-3-yl)propyl)-3-(thiazol-2-yl)thiourea] | 100 to 1000 µM | – | –
34 | CSC(=S)NCCc1ccncc1 [compound 69, Methyl 2-(pyridin-4-yl)ethylcarbamodithioate] | 100 to 1000 µM | – | –
35 | S=C(NCc1ccc2ccccc2c1)Nc1nccs1 [compound 591, 1-(naphthalen-2-ylmethyl)-3-(thiazol-2-yl)thiourea] | 100 to 1000 µM | – | –
36 | S=C1SCCCN1Cc1ccccc1 [compound 77, 3-Benzyl-1,3-thiazinane-2-thione] | 100 to 1000 µM | – | –
37 | NOC(CN1CCOCC1)c1ccccc1 (stereo not shown) [compound 1936, O-(2-morpholino-1-phenylethyl)hydroxylamine] | – | – | IC50 [1, 5]: 10 to 100 µM
38 | Cc1cccc(CCSC(=S)NCCc2c[nH]c3ccccc23)c1 [compound 20, 3-Methylphenethyl 2-(1H-indol-3-yl)ethylcarbamodithioate] | 100 to 1000 µM | – | –
39 | NOC(CCN1CCOCC1)c1ccccc1 (stereo not shown) [compound 1929, O-(3-morpholino-1-phenylpropyl)hydroxylamine] | – | – | IC50 [1, 5]: 100 to 1000 µM
40 | CC(=O)NCC(ON)c1ccccc1 (stereo not shown) [compound 1899, N-(2-(aminooxy)-2-phenylethyl)acetamide] | – | – | IC50 [1, 5]: 100 to 1000 µM
41 | CNCC(ON)c1ccccc1 (stereo not shown) [compound 1902, 2-(aminooxy)-N-methyl-2-phenylethanamine] | – | – | IC50 [1, 5]: 100 to 1000 µM
42 | CCC(CC)C1NC(C(=O)O)Cc2c1[nH]c1ccccc21 (stereo not shown) [compound 525, 1-(pentan-3-yl)-2,3,4,9-tetrahydro-1H-pyrido[3,4-b]indole-3-carboxylic acid] | 100 to 1000 µM | – | –
43 | NOC(CCC(=O)NC1CCCCC1)c1ccccc1 (stereo not shown) [compound 1901, 4-(aminooxy)-N-cyclohexyl-4-phenylbutanamide] | – | – | IC50 [1, 5]: 100 to 1000 µM
44 | NO[C@H](Cc1ccccc1)C(=O)O [compound 1690, (R)-2-(aminooxy)-3-phenylpropanoic acid] | – | – | IC50 [1, 6]: 100 to 1000 µM
45 | Nc1ccccc1NC(=O)CCc1c[nH]c2ccccc12 [compound 592, N-(2-aminophenyl)-3-(1H-indol-3-yl)propanamide] | 100 to 1000 µM | – | –
